Assay results reported in EP3445348B1, “FLUORESCENT COMPOUNDS, PRODUCTION METHODS AND USES THEREOF” (Universidade de Aveiro, priority 2016, dated 2017).

How the values were obtained:
[1] = comparison compound; cited from earlier work
HeLa cells = assay: Resazurin metabolic cell viability assay, HeLa cells; assay type: cell-based; conditions: Human HeLa live cells, 24h, 1×10^-5 mol.L^-1
Excerpt: (§1) The following figures provide preferred embodiments for the present disclosure and should not be seen as limiting the scope of the disclosure. • Figure 1: Scheme of the fluorophore precursors synthesis. • Figure 2: Synthesis of the fluorophores. • Figure 3: Absorption and emission spectra of some of the fluorophores in a dichloromethane (DCM) solution wherein black squares represent the absorption of (1E,4E)-1,5-bis[4-(dimethylamino)phenyl]penta-1,4-dien-3-one; black circles represent the absorption of (2E,6E)-2,6-bis[4-(dimethylamino)benzylidene]cyclohexanone; black diamonds represent the absorption of 2,6-bis[3-bromo-4-(dimethylamino)benzylidene]cyclohexanone; black triangles pointing up represent the absorption of (1E,4E)-1,5-bis[3-bromo-4-(dimethylamino)phenyl]penta-1,4-dien-3-one; black triangles pointing down represent the absorption of (1E,4E)-1,5-bis[3-chloro-4-(dimethylamino)phenyl]penta-1,4-dien-3-one; black stars represent the absorption of 2,6-bis[3-chloro-4-(dimethylamino)benzylidene]cyclohexanone; open squares represent the emission of (1E,4E)-1,5-bis[4-(dimethylamino)phenyl]penta-1,4-dien-3-one; open circles represent the emission of (2E,6E)-2,6-bis[4-(dimethylamino)benzylidene]cyclohexanone; open diamonds represent the emission of 2,6-bis[3-bromo-4-(dimethylamino)benzylidene]cyclohexanone; open triangles pointing up represent the absorption of (1E,4E)-1,5-bis[3-bromo-4-(dimethylamino)phenyl]penta-1,4-dien-3-one; open triangles pointing down represent the absorption of (1E,4E)-1,5-bis[3-chloro-4-(dimethylamino)phenyl]penta-1,4-dien-3-one; open stars represent the absorption of 2,6-bis[3-chloro-4-(dimethylamino)benzylidene]cyclohexanone. • Figure 4: Sample distributions of two cyclic fluorophores: (2E,6E)-2,6-bis[3-bromo-4-(dimethylamino)benzylidene]cyclohexanone labelled as cyclic-Br and (2E,6E)-2,6-bis[3-chloro-4-(dimethylamino)benzylidene]cyclohexanone labelled as cyclic-Cl (orange pseudocolour) in HeLa cells cultured on coverslips and incubated alive and for 1h with 10^-5 mol.L^-1 of the compounds. The laser line 458 nm was used to excite and the confocal Zeiss LSM-510 META 415 to 750 nm detector used to detect the fluorophores. The nuclear DAPI is used as a counterstaining dye. • Figure 5: Co-localization of the compounds (1E,4E)-1,5-bis[4-(dimethylamino)phenyl]penta-1,4-dien-3-one, labelled as linear-H and (2E,6E)-2,6-bis[3-chloro-4-(dimethylamino)benzylidene]cyclohexanone, labelled as cyclic-Cl with the Trans-Golgi Network (TGN) marker Syntaxin-6, which was Texas Red (red colour) and Alexa-405 (cyan pseudocolour) labelled by using secondary antibodies. DAPI (blue colour) was used as nuclear marker. HeLa cells were incubated in particular for 1h with 1-2×10^-5 mol.L^-1 of the fluorophores, before being fixed. The laser line 405 nm, in particular at 10-20% of its power was used to excite the fluorophores. […] A. Cell viability was determined using the metabolic Resazurin assay, and data (resazurin final O.D.±SD of four independent experiments) presented graphically as percentages of control cells (not incubated with the compounds), wherein the control is labelled as Ctrl; (1E,4E)-1,5-bis[4-(dimethylamino)phenyl]penta-1,4-dien-3-one is labelled as L-H; (1E,4E)-1,5-bis[3-chloro-4-(dimethylamino)phenyl]penta-1,4-dien-3-one is labelled as L-Cl; (1E,4E)-1,5-bis[3-bromo-4-(dimethylamino)phenyl]penta-1,4-dien-3-one is labelled as L-Br; (2E,6E)-2,6-bis[4-(dimethylamino)benzylidene]cyclohexanone labelled is labelled as C-H; 2,6-bis[3-chloro-4-(dimethylamino)benzylidene]cyclohexanone is labelled as C-Cl; 2,6-bis[3-bromo-4-(dimethylamino)benzylidene]cyclohexanone is labelled as C-Br. Statistical significance using the student-t test: *p<0.05; **p<0.01. B. Microphotograph of Cyclic-Cl distribution in HeLa and MC3T3 cells upon 24h of exposure to the compounds. Microscope settings used: a 40×/1.3 oil objective; HFT 405/488/633; in particular a 405 nm laser line at 40% of its power. […]

MC3T3 live cells = assay: Resazurin metabolic cell viability assay, MC3T3 cells; assay type: cell-based, rat; conditions: 24h, 1×10^-5 mol.L^-1
Excerpt: as §1

| Compound | storage stability [1] | cytotoxicity (cell viability, resazurin reduction) (HeLa cells) | cytotoxicity (cell viability, resazurin reduction) (MC3T3 live cells) |
| --- | --- | --- | --- |
| CCN(CC)c1ccc2nc3c4ccccc4c(=O)cc-3oc2c1 [Nile Red, 9-diethylamino-5H-benzo[a]phenoxazine-5-one] | stable if kept at -20 °C |  |  |
| CN(C)c1ccc(/C=C2\CCC/C(=C\c3ccc(N(C)C)c(Br)c3)C2=O)cc1Br [cyclic-Br, (2E,6E)-2,6-bis[3-bromo-4-(dimethylamino)benzylidene]cyclohexanone] |  | not cytotoxic | not cytotoxic |
| CN(C)c1ccc(/C=C2\CCC/C(=C\c3ccc(N(C)C)c(Cl)c3)C2=O)cc1Cl [cyclic-Cl, (2E,6E)-2,6-bis[3-chloro-4-(dimethylamino)benzylidene]cyclohexanone] |  | not cytotoxic | not cytotoxic |
| CN(C)c1ccc(/C=C2\CCC/C(=C\c3ccc(N(C)C)cc3)C2=O)cc1 [cyclic-H, (2E,6E)-2,6-bis[4-(dimethylamino)benzylidene]cyclohexanone] |  | not cytotoxic | not cytotoxic |
| CN(C)c1ccc(/C=C/C(=O)/C=C/c2ccc(N(C)C)c(Br)c2)cc1Br [linear-Br, (1E,4E)-1,5-bis[3-bromo-4-(dimethylamino)phenyl]penta-1,4-dien-3-one] |  | not cytotoxic | not cytotoxic |
| CN(C)c1ccc(/C=C/C(=O)/C=C/c2ccc(N(C)C)c(Cl)c2)cc1Cl [linear-Cl, (1E,4E)-1,5-bis[3-chloro-4-(dimethylamino)phenyl]penta-1,4-dien-3-one] |  | not cytotoxic | not cytotoxic |
| CN(C)c1ccc(/C=C/C(=O)/C=C/c2ccc(N(C)C)cc2)cc1 [linear-H, (1E,4E)-1,5-bis[4-(dimethylamino)phenyl]penta-1,4-dien-3-one] |  | not cytotoxic | not cytotoxic |
